In the oligonucleotide strings, read from the 5' end, every base follows the letter of its sugar. An asterisk marks phosphorothioate; unmarked linkages are phosphodiester. Other units and linkages are bracketed, terminal groups are in braces. A string of capitals states the bases alone. d = 2'-deoxy (DNA)
Test system: human meltrin α RNA
Experiment: Suppression of human meltrin α expression by antisense compound in RD cell (real time PCR)
Assay type: cell-based
Details: RD cell, corrected by GAPDH
Experimental: First, RD cell (ATCC) was suspended in DMEM containing 10% fetal bovine serum (FBS, SIGMA), and the suspension was inoculated in 6 well culture plate at 2.5×10^5 cells/well/2 mL. After incubating overnight at 37° C. in the presence of 5% CO2, the cells were washed twice with serum-free DMEM, and Opti-MEM medium (GIBCO) was added at 800 μL/well.
Gene transfection reagent Lipofectin (Invitrogen) was diluted with Opti-MEM to 20 μg/mL, and the dilution was allowed to stand at room temperature for 30 minutes. Next, the antisense oligodeoxynucleotide synthesized as described above was heated at 90° C. for 3 minutes, and after quenching on ice, diluted with Opti-MEM to a concentration 10 times higher than the final concentration. Equal amounts of the Lipofectin in Opti-MEM and the antisense oligo DNA in Opti-MEM were mixed, and the mixture was incubated at room temperature for 15 minutes and added to 6 well plate at 200 μL/well.
The culture was incubated at 37° C. for 4 hours in the presence of 5% CO2, and the culture supernatant containing the Lipofectin was removed. The cells were washed twice with serum-free DMEM, and after adding 1 mL/well of Opti-MEM and incubating for 18 hours at 37° C. in the presence of 5% CO2, the cells were subjected to the measurement of the level of expression of meltrin α RNA.
After the washing, RNA was isolated from the cell by using RNA isolation kit (RNeasy Micro Kit, QIAGEN) according to the protocol of the kit, and RNA concentration was determined by measuring absorbance at a wavelength of 260 nm with a spectrophotometer (Nano prop, LMS Co., Ltd.) (1OD=40 μg/mL). After the quantitation, the RNA was prepared to a concentration of 0.1 μg/μL by using DEPC-treated water.
0.35 μg of the isolated RNA, and 3.5 μL of 10× TaqMan buffer, 7.7 μL of 25 mM MgCl2, 7.0 μL of 2.5 mM each dNTP Mix, 1.75 μL of 50 μM Random Hexamers, 0.7 μL of 20 U/μL RNase inhibitor, and 0.9 μL of 50 U/μL MultiScribe Reverse Transcriptase (all purchased from Applied Biosystems) were mixed, and water was added to make up the total volume to 35 μL. This solution was maintained at 25° C. for 10 minutes, at 48° C. for 30 minutes, and at 95° C. for 5 minutes, and reverse transcription was conducted to synthesize cDNA.
A solution in total volume of 20 μL containing 10 μL of TaqMan Universal PCR Master Mix, 0.4 μL of 10 μM TaqMan MGB Probe (sequence 5′FAM-caccgaaggacaatccca-MGB-3′: Applied Biosystems), 0.1 μL of 50 μM Forward primer (sequence ggaagccgccagattcct) for detecting meltrin α, 0.1 μL of 50 μM Reverse primer (sequence […]) for detecting meltrin α (all purchased from Sigma-Genosys), 5 μL of the cDNA solution of (3), and 4.4 μL of water was prepared, and after maintaining the solution at 50° C. for 2 minutes and at 95° C. for 10 minutes, PCR was conducted by repeating 40 cycles of 95° C. for 15 seconds and 60° C. for 1 minute in ABI Prism 7000.
The amount of the human meltrin α RNA was measured by conducting real time PCR by using the plasmid containing the cDNA coding for the human meltrin α for the template to generate the standard curve, and calculating RNA copy number of the meltrin α in each sample. The level of expression of GAPDH was also determined by using a primer and probe set for real time PCR of human GAPDH (Pre-Developed TaqMan Assay Reagents Human GAPDH (20×) (Cat# 4310884E, Applied Biosystems).
The results of the real time PCR of the meltrin α was corrected by the level of expression of the GAPDH to calculate the suppression rate. […]

Substance	suppression rate of expression, 50 nM	suppression rate of expression, 200 nM
H016: gggcgcgctgccatcgtcgc (GGGCGCGCTGCCATCGTCGC; antisense; DNA, all phosphorothioate, methylation of C not given here)	+ (“+” when the suppression rate was at least 30%)	++ (“++” when the suppression rate was at least 50%)
H072: gcagcctcctttctcaaccg (dG*dC*dA*dG*dC*dC*dT*dC*dC*dT*dT*dT*dC*dT*dC*dA*dA*dC*dC*dG; antisense)	–	+ (“+” when the suppression rate was at least 30%)
H150 + 10: atctgggcacttggtgtgga (dA*dT*dC*dT*dG*dG*dG*dC*dA*dC*dT*dT*dG*dG*dT*dG*dT*dG*dG*dA; antisense)	++ (“++” when the suppression rate was at least 50%)	–
H159: actgacggcagtagctcaaa (dA*dC*dT*dG*dA*dC*dG*dG*dC*dA*dG*dT*dA*dG*dC*dT*dC*dA*dA*dA; antisense)	–	++ (“++” when the suppression rate was at least 50%)
H075: cttcctgctgcaactgctga (dC*dT*dT*dC*dC*dT*dG*dC*dT*dG*dC*dA*dA*dC*dT*dG*dC*dT*dG*dA)	–	+ (“+” when the suppression rate was at least 30%)
H144 + 12: aggatctgcaggcagaggct (AGGATCTGCAGGCAGAGGCT; antisense; DNA, all phosphorothioate, methylation of C not given here)	+++ (“+++” when the suppression rate was at least 70%)	–
H107: ggcctccttgctgcaggggg (dG*dG*dC*dC*dT*dC*dC*dT*dT*dG*dC*dT*dG*dC*dA*dG*dG*dG*dG*dG; antisense)	–	++ (“++” when the suppression rate was at least 50%)
H225: aagacagaggcatcatggca (dA*dA*dG*dA*dC*dA*dG*dA*dG*dG*dC*dA*dT*dC*dA*dT*dG*dG*dC*dA; antisense)	–	+++ (“+++” when the suppression rate was at least 70%)
H096: tccccagagtgtgacacact (dT*dC*dC*dC*dC*dA*dG*dA*dG*dT*dG*dT*dG*dA*dC*dA*dC*dA*dC*dT; antisense)	–	+ (“+” when the suppression rate was at least 30%)
H129: gggtggccgggaagggcgca (GGGTGGCCGGGAAGGGCGCA; antisense; DNA, all phosphorothioate, methylation of C not given here)	–	++ (“++” when the suppression rate was at least 50%)
H144 + 11: ggatctgcaggcagaggctt (GGATCTGCAGGCAGAGGCTT; antisense; DNA, all phosphorothioate, methylation of C not given here)	++ (“++” when the suppression rate was at least 50%)	–
H233: agttttgttttctggaaggc (DNA dA*dG*dT*dT*dT*dT*dG*dT*dT*dT*dT*dC*dT*dG*dG*dA*dA*dG*dG*dC; antisense)	–	+ (“+” when the suppression rate was at least 30%)
H017: gggcgggggacacgggcagc (GGGCGGGGGACACGGGCAGC; antisense; DNA, all phosphorothioate, methylation of C not given here)	–	++ (“++” when the suppression rate was at least 50%)
H155: tccaactggagctgaaagat (dT*dC*dC*dA*dA*dC*dT*dG*dG*dA*dG*dC*dT*dG*dA*dA*dA*dG*dA*dT; antisense)	–	++ (“++” when the suppression rate was at least 50%)
H149 + 10: tattgtggagcaggtctgag (dT*dA*dT*dT*dG*dT*dG*dG*dA*dG*dC*dA*dG*dG*dT*dC*dT*dG*dA*dG; antisense)	+ (“+” when the suppression rate was at least 30%)	–
H196: agggaggtggcggtttgcag (dA*dG*dG*dG*dA*dG*dG*dT*dG*dG*dC*dG*dG*dT*dT*dT*dG*dC*dA*dG; antisense)	+ (“+” when the suppression rate was at least 30%)	+++ (“+++” when the suppression rate was at least 70%)
H018: cagggcgagcaggagggcgc (CAGGGCGAGCAGGAGGGCGC; antisense; DNA, all phosphorothioate, methylation of C not given here)	+ (“+” when the suppression rate was at least 30%)	++ (“++” when the suppression rate was at least 50%)
H183: gtctgcaacccaggttctca (dG*dT*dC*dT*dG*dC*dA*dA*dC*dC*dC*dA*dG*dG*dT*dT*dC*dT*dC*dA; antisense)	–	++ (“++” when the suppression rate was at least 50%)
H136 + 18: tgagggacattcaggccgtt (TGAGGGACATTCAGGCCGTT; antisense; DNA, all phosphorothioate, methylation of C not given here)	++ (“++” when the suppression rate was at least 50%)	–
H142: gcctgcctaagtgcaggctt (GCCTGCCTAAGTGCAGGCTT; antisense; DNA, all phosphorothioate, methylation of C not given here)	++ (“++” when the suppression rate was at least 50%)	++ (“++” when the suppression rate was at least 50%)
H034: acatgtccatggtagtaaca (ACATGTCCATGGTAGTAACA; antisense; DNA, all phosphorothioate, methylation of C not given here)	–	++ (“++” when the suppression rate was at least 50%)
H145 + 4: tgttctggccagaggatctg (dT*dG*dT*dT*dC*dT*dG*dG*dC*dC*dA*dG*dA*dG*dG*dA*dT*dC*dT*dG; antisense)	++ (“++” when the suppression rate was at least 50%)	–
H070: ctgtccagtgtgtcatgatt (dC*dT*dG*dT*dC*dC*dA*dG*dT*dG*dT*dG*dT*dC*dA*dT*dG*dA*dT*dT; antisense)	–	+ (“+” when the suppression rate was at least 30%)
H147: tcctggggtcctggccaagg (dT*dC*dC*dT*dG*dG*dG*dG*dT*dC*dC*dT*dG*dG*dC*dC*dA*dA*dG*dG; antisense)	++ (“++” when the suppression rate was at least 50%)	+++ (“+++” when the suppression rate was at least 70%)
H137 + 4: tggggctgagggacattcag (TGGGGCTGAGGGACATTCAG; antisense; DNA, all phosphorothioate, methylation of C not given here)	++ (“++” when the suppression rate was at least 50%)	–
H189: gccttgagtgacactacaga (dG*dC*dC*dT*dT*dG*dA*dG*dT*dG*dA*dC*dA*dC*dT*dA*dC*dA*dG*dA; antisense)	–	+ (“+” when the suppression rate was at least 30%)
H234: acaccgggaaagtgaaatgc (DNA dA*dC*dA*dC*dC*dG*dG*dG*dA*dA*dA*dG*dT*dG*dA*dA*dA*dT*dG*dC; antisense)	–	++ (“++” when the suppression rate was at least 50%)
H136 + 17: gagggacattcaggccgttg (GAGGGACATTCAGGCCGTTG; antisense; DNA, all phosphorothioate, methylation of C not given here)	+ (“+” when the suppression rate was at least 30%)	–
H145: ctggccagaggatctgcagg (CTGGCCAGAGGATCTGCAGG; antisense; DNA, all phosphorothioate, methylation of C not given here)	+++ (“+++” when the suppression rate was at least 70%)	+++ (“+++” when the suppression rate was at least 70%)
